For 19 compounds, IC50 results are on record in patent publication US10730889B2, “Amido spirocyclic amide and sulfonamide derivatives” (Forma TM, LLC, priority 2012, dated 2020).

Like-named read-outs stand apart in the source and are kept apart here.

One assay has as its target NAMPT (Homo sapiens (Human), UniProt P43490). The assay can be described thus: Biochemical inhibition assay (NAMPT enzymatic reaction, NMN quantified by mass spectrometry).
The next assay relates to A2780 cells. The assay can be described thus: In-vitro cell proliferation assay (SRB, 72 hours). It counts as cell-based. The note with it: A2780 cells, 72 hours, SRB, read-out: Cell Proliferation (IC50).

Sequence of NAMPT (P43490 whole entry): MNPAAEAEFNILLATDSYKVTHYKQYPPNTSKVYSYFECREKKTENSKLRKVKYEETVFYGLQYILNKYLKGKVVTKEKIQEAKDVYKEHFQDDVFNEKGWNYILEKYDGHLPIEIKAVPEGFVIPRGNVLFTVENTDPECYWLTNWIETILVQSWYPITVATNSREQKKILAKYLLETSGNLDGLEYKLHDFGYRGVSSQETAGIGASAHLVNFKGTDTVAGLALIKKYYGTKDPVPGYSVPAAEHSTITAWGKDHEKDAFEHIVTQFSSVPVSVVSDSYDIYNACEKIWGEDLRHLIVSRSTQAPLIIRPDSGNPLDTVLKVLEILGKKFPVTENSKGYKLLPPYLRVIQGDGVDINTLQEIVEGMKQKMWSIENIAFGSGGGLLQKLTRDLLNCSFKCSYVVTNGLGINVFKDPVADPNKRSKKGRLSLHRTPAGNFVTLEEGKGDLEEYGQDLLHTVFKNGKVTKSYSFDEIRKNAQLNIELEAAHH

For the compound `Cn1nc(C(=O)N2CCC3(CC2)CC3CNC(=O)c2cc3ccncc3o2)cc1C(F)(F)F` (stereo not drawn) [Example 131, N-[[6-[1-methyl-5-(trifluoromethyl]pyrazole-3-carbonyl]-6-azaspiro[2.5]octan-2-yl]methyl]furo[2,3-c]pyridine-2-carboxamide], the IC50 on NAMPT turned out to be 356 nM; in the assay with A2780 cells (Homo sapiens, A2780, 72 h), 326 nM. The matching figures for `CC(C)(C)OC(=O)N1CCC2(CC1)CC2CNC(=O)c1cnn2nccc2c1` (stereo not drawn) [Example 383, tert-Butyl 2-[(pyrazolo[1,5-b]pyridazine-5-carbonylamino)methyl]-6-azaspiro[2.5]octane-6-carboxylate]: 15.8 nM and 2000 nM. On to `Cc1nc(C(F)(F)F)c(C(=O)N2CCC3(CC2)CC3CNC(=O)N2Cc3ccncc3C2)s1` (stereo not drawn) [Example 388, N-[[6-[2-methyl-4-(trifluoromethyl]thiazole-5-carbonyl]-6-azaspiro[2.5]octan-2-yl]methyl]-1,3-dihydropyrrolo[3,4-c]pyridine-2-carboxamide], for which the IC50 in the assay with A2780 cells (Homo sapiens, A2780, 72 h) is 1.26 nM.

On to `CC1(C)CC1C(=O)N1CCC2(CC1)CC2CNC(=O)N1Cc2ccncc2C1` (stereo not drawn) [Example 389, N-[[6-(2,2-dimethylcyclopropanecarbonyl)-6-azaspiro[2.5]octan-2-yl]methyl]-1,3-dihydropyrrolo[3,4-c]pyridine-2-carboxamide], for which the IC50 with A2780 cells (Homo sapiens, A2780, 72 h) came out at 0.575 nM. Turning to `CC(C)(C)OC(=O)N1CCC2(CC1)CC2CNC(=O)NCc1ccc2nccn2c1` (stereo not drawn) [Example 392, tert-butyl 2-[(imidazo[1,2-a]pyridin-6-ylmethylcarbamoylamino)methyl]-6-azaspiro[2.5]octane-6-carboxylate], the IC50 with A2780 cells (Homo sapiens, A2780, 72 h) was 2000 nM. Same read-out and setting: in the case of `Nc1ccc(CC(=O)N2CCC3(CC2)CC3CNC(=O)N2Cc3ccncc3C2)cn1` (stereo not drawn) [Example 394, N-[[6-[2-(6-Amino-3-pyridyl)acetyl]-6-azaspiro[2.5]octan-2-yl]methyl]-1,3-dihydropyrrolo[3,4-c]pyridine-2-carboxamide] it was 14.5 nM. Still for that read-out and setting: the figure for `O=C(NCC1CC12CCN(C(=O)N1CCOCC1)CC2)N1Cc2ccncc2C1` (stereo not drawn) [Example 395, N-[[6-(morpholine-4-carbonyl)-6-azaspiro[2.5]octan-2-yl]methyl]-1,3-dihydropyrrolo[3,4-c]pyridine-2-carboxamide] is 24.3 nM; for `CC(C)(O)CCC(=O)N1CCC2(CC1)CC2CNC(=O)c1cc2cnccc2[nH]1` (stereo not drawn) [Example 397, N-[[6-(4-hydroxy-4-methyl-pentanoyl)-6-azaspiro[2.5]octan-2-yl]methyl]-1H-pyrrolo[3,2-c]pyridine-2-carboxamide] it is 888 nM. For `O=C(NCC1CC12CCN(C(=O)c1cnccc1C(F)(F)F)CC2)N1Cc2ccncc2C1` (stereo not drawn) [Example 398, N-[[6-[4-(trifluoromethyl]pyridine-3-carbonyl]-6-azaspiro[2.5]octan-2-yl]methyl]-1,3-dihydropyrrolo[3,4-c]pyridine-2-carboxamide], the IC50 in the assay with A2780 cells (Homo sapiens, A2780, 72 h) was 0.722 nM.

`CC1(O)CC(CC(=O)N2CCC3(CC2)CC3CNC(=O)c2cc3cnccc3[nH]2)C1` (stereo not drawn) [Example 400, N-[[6-[2-(3-hydroxy-3-methyl-cyclobutyl)acetyl]-6-azaspiro[2.5]octan-2-yl]methyl]-1H-pyrrolo[3,2-c]pyridine-2-carboxamide]: in the assay with A2780 cells (Homo sapiens, A2780, 72 h), the IC50 was 222 nM. Same read-out and setting: in the case of `CC(C)(C)OC(=O)N1CCC2(CC1)CC2CNC(=O)c1ccc2nccn2n1` (stereo not drawn) [Example 402, tert-butyl 2-[(imidazo[1,2-b]pyridazine-6-carbonylamino)methyl]-6-azaspiro[2.5]octane-6-carboxylate] it was 2000 nM; in that of `CC1(CC(=O)N2CCC3(CC2)CC3CNC(=O)N2Cc3ccncc3C2)CCN(CC(F)(F)F)CC1` (stereo not drawn) [Example 403, N-[[6-[2-[4-Methyl-1-(2,2,2-trifluoroethyl)-4-piperidyl]acetyl]-6-azaspiro[2.5]octan-2-yl]methyl]-1,3-dihydropyrrolo[3,4-c]pyridine-2-carboxamide], 2.9 nM. The same measure, in the same setting: in the case of `CC(C)(C)OC(=O)N1CCC2(CC1)CC2CNC(=O)N1Cc2cnc(N)cc2C1` (stereo not drawn) [Example 406] it was 2000 nM; in that of `O=C(Cc1cncnc1)N1CCC2(CC1)CC2CNC(=O)N1Cc2ccncc2C1` (stereo not drawn) [Example 407, N-[[6-(2-pyrimidin-5-ylacetyl)-6-azaspiro[2.5]octan-2-yl]methyl]-1,3-dihydropyrrolo[3,4-c]pyridine-2-carboxamide], 72.6 nM.

As to `O=C(NCC1CC12CCN(C(=O)c1ccccc1)CC2)c1cc2ccncc2o1` (stereo not drawn) [Example 411, N-((6-benzoyl-6-azaspiro[2.5]octan-2-yl)methyl]furo[2,3-c]pyridine-2-carboxamide], the IC50 in the assay with A2780 cells (Homo sapiens, A2780, 72 h) is 2000 nM. Same read-out and setting: in the case of `Cc1ncoc1C(=O)N1CCC2(CC1)CC2CNC(=O)N1Cc2ccncc2C1` (stereo not drawn) [Example 415, N-[[6-(4-methyloxazole-5-carbonyl)-6-azaspiro[2.5]octan-2-yl]methyl]-1,3-dihydropyrrolo[3,4-c]pyridine-2-carboxamide] it was 14.2 nM; in that of `CC(C)OC(=O)N1CCC2(CC1)CC2CNC(=O)c1cc2ccncc2o1` (stereo not drawn) [Example 416, isopropyl 2-[(furo[2,3-c]pyridine-2-carbonylamino)methyl]-6-azaspiro[2.5]octane-6-carboxylate], 461 nM; in that of `CC1(OC(=O)N2CCC3(CC2)CC3CNC(=O)c2cc3ccncc3o2)COC1` (stereo not drawn) [Example 417, (3-methyloxetan-3-yl) 2-[(furo[2,3-c]pyridine-2-carbonylamino)methyl]-6-azaspiro[2.5]octane-6-carboxylate], 830 nM.

For “N-[[6-(2,2- dimethylcyclopropanecarbonyl)- 6-azaspiro[2.5]octan-2- yl]methyl]furo[2,3-c]pyndine-2- carboxamide [Example 373]”, the IC50 in the assay with A2780 cells was found to be 7.03 nM.
